{
  "source": "patent US11530384B2",
  "about": "“Use of matrix cells for preparing a micro hair follicle” (L'OREAL, priority 2015, dated 2022)",
  "tested_on": "matrix cells",
  "test": "Culture-amplification of hair matrix cells on a 3T3 feeder layer in the presence of Y27632",
  "format": "cell-based, human",
  "conditions": "matrix cells cultured on mitomycin-blocked 3T3 feeder layer, Green-based medium, 10 μM of Y27632",
  "from_the_text": "Some authors have proposed culturing these cells in coculture with papilla fibroblasts. The drawback of this method is that the culture obtained is not homogeneous, the matrix cells are contaminated with the dermal fibroblasts from the papilla used in coculture (Reynolds A J, Lawrence […] Human hair follicle germinative epidermal cell culture. J Invest Dermatol. 1993 October; 101(4):634-8). Luo et al. have proposed a technique of microdissection followed by culture of the matrix cells on a plastic support (Luo et al: Methods for culturing hair follicle epithelial matrix cells; Reg. number: H1610; Nov. 5, 1996). However, this microdissection technique results in a very low yield of matrix cells. The applicant has isolated the matrix cells and developed a process for culturing these cells. […] keratinocytes until they reach confluence while forming regular clusters. The cells are amplified according to the technique of Rheinwald and Green (Cell, vol. 6, 331-344,1975) by culturing on a feeder support constituted of fibroblasts in a suitable medium known to those skilled in the art, in the presence of growth factors, in particular amino acids, serum, cholera toxin, insulin, triiodothyronine and pH buffer solution. […]",
  "note": "Entries after “also recorded” stand apart in the source; their conditions may differ.",
  "data": [
    {"smiles": "C[C@@H](N)[C@H]1CC[C@H](C(=O)Nc2ccncc2)CC1", "note": "[Y27632]", "values": [
      {"measurement": "differentiation of matrix cells into keratinocytes positive for K85 K35 markers", "result": "differentiation thereof into keratinocytes that are positive for the K85 K35 markers; also recorded: differentiate into K85 K35 keratinocytes"},
      {"measurement": "proliferation of matrix cells in culture", "result": "considerable proliferation; also recorded: proliferate rapidly"}
    ]}
  ]
}
